Legend:
Rattus norvegicus [1] = organism: Rattus norvegicus; assay: DrugMatrix - Regimen: Daily Repeat; format: toxicity, organism-based, Sprague-Dawley; set-up: regimen Daily Repeat, gender Male, age 6-8 weeks; settings: in vivo, po, […], route oral GAVAGE, time 14 day, vehicle 100 % WATER
Rattus norvegicus [2] = organism: Rattus norvegicus; format: toxicity, organism-based, Sprague-Dawley; settings: in vivo, po, 24 h, route oral GAVAGE, time 1 day, vehicle 100 % WATER
Description: DrugMatrix - Regimen: Single

[3] = 0 mg/kg, tissue Blood, dose level Control
[4] = 0 mg/kg, tissue Plasma, dose level Control
[5] = tissue Blood, dose 2.5 mg/Kg, dose level High
[6] = tissue Plasma, dose 2.5 mg/Kg, dose level High
[7] = 0 mg/kg, vehicle control, tissue Blood, dose level Control
[8] = 0 mg/kg, vehicle control, tissue Plasma, dose level Control
[9] = […], tissue Blood, dose 2.5 mg/Kg, dose level High
[10] = […], tissue Plasma, dose 2.5 mg/Kg, dose level High

Sequence: MERCURIC CHLORIDE
- ABSOLUTE BASOPHIL (Rattus norvegicus [1]; [3]): 0 CELLS/uL
- ABSOLUTE EOSINOPHIL (Rattus norvegicus [1]; [3]): 117.17 CELLS/uL
- ABSOLUTE MONOCYTE (Rattus norvegicus [1]; [3]): 419 CELLS/uL
- ABSOLUTE SEGMENTED NEUTROPHIL (Rattus norvegicus [1]; [3]): 2139.67 CELLS/uL
- BASOPHIL (Rattus norvegicus [1]; [3]): 0%
- EOSINOPHIL (Rattus norvegicus [1]; [3]): 0.67%
- ERYTHROCYTE COUNT (Rattus norvegicus [1]; [3]): 6.61 x10E6/uL
- HEMATOCRIT (Rattus norvegicus [1]; [3]): 37.58%
- HEMOGLOBIN (Rattus norvegicus [1]; [3]): 13.8 G/DL
- LEUKOCYTE COUNT (Rattus norvegicus [1]; [3]): 15.45 x10E3/uL
- LYMPHOCYTE (Rattus norvegicus [1]; [3]): 83%
- MEAN CORPUSCULAR HEMOGLOBIN (Rattus norvegicus [1]; [3]): 20.87 pg
- MEAN CORPUSCULAR HEMOGLOBIN CONCENTRATION (Rattus norvegicus [1]; [3]): 36.72 G/DL
- MEAN CORPUSCULAR VOLUME (Rattus norvegicus [1]; [3]): 56.85 fL
- MONOCYTE (Rattus norvegicus [1]; [3]): 2.67%
- NEUTROPHIL (Rattus norvegicus [1]; [3]): 13.67%
- NUCLEATED RED BLOOD CELLS (Rattus norvegicus [1]; [3]): 0 /100WBC
- PLATELET COUNT (Rattus norvegicus [1]; [3]): 1108.33 x10E3/uL
- ALANINE AMINOTRANSFERASE (Rattus norvegicus [1]; [4]): 56.83 u/L
- ALKALINE PHOSPHATASE (Rattus norvegicus [1]; [4]): 354.33 u/L
- ASPARTATE AMINOTRANSFERASE (Rattus norvegicus [1]; [4]): 93.33 u/L
- BLOOD UREA NITROGEN (Rattus norvegicus [1]; [4]): 16.67 mg/dL
- CARBON DIOXIDE (Rattus norvegicus [1]; [4]): 27.83 mmol/L
- CHOLESTEROL (Rattus norvegicus [1]; [4]): 62.33 mg/dL
- CREATININE (Rattus norvegicus [1]; [4]): 0.2 mg/dL
- GLUCOSE (Rattus norvegicus [1]; [4]): 137 mg/dL
- LACTATE DEHYDROGENASE (Rattus norvegicus [1]; [4]): 407 u/L
- LIPASE (Rattus norvegicus [1]; [4]): 10.83 u/L
- PHOSPHORUS (Rattus norvegicus [1]; [4]): 11.45 mg/dL
- POTASSIUM (Rattus norvegicus [1]; [4]): 6.51 MEQ/L
- SODIUM (Rattus norvegicus [1]; [4]): 145.57 MEQ/L
- TOTAL BILIRUBIN (Rattus norvegicus [1]; [4]): 0.2 mg/dL
- TOTAL PROTEIN (Rattus norvegicus [1]; [4]): 6.3 G/DL
- ABSOLUTE BASOPHIL (Rattus norvegicus [1]; [5]): 0 CELLS/uL
- ABSOLUTE EOSINOPHIL (Rattus norvegicus [1]; [5]): 269 CELLS/uL
- ABSOLUTE LYMPHOCYTE (Rattus norvegicus [1]; [5]): 14982 CELLS/uL
- ABSOLUTE MONOCYTE (Rattus norvegicus [1]; [5]): 560.2 CELLS/uL
- ABSOLUTE SEGMENTED NEUTROPHIL (Rattus norvegicus [1]; [5]): 2068.8 CELLS/uL
- BASOPHIL (Rattus norvegicus [1]; [5]): 0%
- EOSINOPHIL (Rattus norvegicus [1]; [5]): 1.6%
- ERYTHROCYTE COUNT (Rattus norvegicus [1]; [5]): 6.64 x10E6/uL
- HEMATOCRIT (Rattus norvegicus [1]; [5]): 37.88%
- LEUKOCYTE COUNT (Rattus norvegicus [1]; [5]): 17.88 x10E3/uL
- LYMPHOCYTE (Rattus norvegicus [1]; [5]): 83.6%
- MEAN CORPUSCULAR HEMOGLOBIN (Rattus norvegicus [1]; [5]): 20.94 pg
- MEAN CORPUSCULAR HEMOGLOBIN CONCENTRATION (Rattus norvegicus [1]; [5]): 36.7 G/DL
- MEAN CORPUSCULAR VOLUME (Rattus norvegicus [1]; [5]): 57.06 fL
- MONOCYTE (Rattus norvegicus [1]; [5]): 3.2%
- NEUTROPHIL (Rattus norvegicus [1]; [5]): 11.6%
- NUCLEATED RED BLOOD CELLS (Rattus norvegicus [1]; [5]): 0 /100WBC
- PLATELET COUNT (Rattus norvegicus [1]; [5]): 1034.6 x10E3/uL
- ALANINE AMINOTRANSFERASE (Rattus norvegicus [1]; [6]): 59.6 u/L
- ALKALINE PHOSPHATASE (Rattus norvegicus [1]; [6]): 375 u/L
- ASPARTATE AMINOTRANSFERASE (Rattus norvegicus [1]; [6]): 95.2 u/L
- BLOOD UREA NITROGEN (Rattus norvegicus [1]; [6]): 17 mg/dL
- CARBON DIOXIDE (Rattus norvegicus [1]; [6]): 23.4 mmol/L
- CHOLESTEROL (Rattus norvegicus [1]; [6]): 68 mg/dL
- CREATININE (Rattus norvegicus [1]; [6]): 0.22 mg/dL
- GLUCOSE (Rattus norvegicus [1]; [6]): 151.4 mg/dL
- LACTATE DEHYDROGENASE (Rattus norvegicus [1]; [6]): 417.8 u/L
- LIPASE (Rattus norvegicus [1]; [6]): 10.2 u/L
- PHOSPHORUS (Rattus norvegicus [1]; [6]): 11.36 mg/dL
- POTASSIUM (Rattus norvegicus [1]; [6]): 6.37 MEQ/L
- SODIUM (Rattus norvegicus [1]; [6]): 147.12 MEQ/L
- TOTAL BILIRUBIN (Rattus norvegicus [1]; [6]): 0.18 mg/dL
- TOTAL PROTEIN (Rattus norvegicus [1]; [6]): 6.74 G/DL
- URIC ACID (Rattus norvegicus [1]; [6]): 2.42 mg/dL
- ABSOLUTE EOSINOPHIL (Rattus norvegicus [2]; [7]): 91.83 CELLS/uL
- ABSOLUTE LYMPHOCYTE (Rattus norvegicus [2]; [7]): 13862.33 CELLS/uL
- ABSOLUTE MONOCYTE (Rattus norvegicus [2]; [7]): 437.83 CELLS/uL
- ABSOLUTE SEGMENTED NEUTROPHIL (Rattus norvegicus [2]; [7]): 1358 CELLS/uL
- BASOPHIL (Rattus norvegicus [2]; [7]): 0%
- EOSINOPHIL (Rattus norvegicus [2]; [7]): 0.5%
- ERYTHROCYTE COUNT (Rattus norvegicus [2]; [7]): 5.12 x10E6/uL
- HEMATOCRIT (Rattus norvegicus [2]; [7]): 31.77%
- HEMOGLOBIN (Rattus norvegicus [2]; [7]): 11.8 G/DL
- LEUKOCYTE COUNT (Rattus norvegicus [2]; [7]): 15.75 x10E3/uL
- MEAN CORPUSCULAR HEMOGLOBIN (Rattus norvegicus [2]; [7]): 23.07 pg
- MEAN CORPUSCULAR HEMOGLOBIN CONCENTRATION (Rattus norvegicus [2]; [7]): 37.17 G/DL
- MONOCYTE (Rattus norvegicus [2]; [7]): 2.67%
- NEUTROPHIL (Rattus norvegicus [2]; [7]): 8.5%
- NUCLEATED RED BLOOD CELLS (Rattus norvegicus [2]; [7]): 0 /100WBC
- PLATELET COUNT (Rattus norvegicus [2]; [7]): 1113.83 x10E3/uL
- ALANINE AMINOTRANSFERASE (Rattus norvegicus [2]; [8]): 45.5 u/L
- ALKALINE PHOSPHATASE (Rattus norvegicus [2]; [8]): 343.83 u/L
- ASPARTATE AMINOTRANSFERASE (Rattus norvegicus [2]; [8]): 70.67 u/L
- BLOOD UREA NITROGEN (Rattus norvegicus [2]; [8]): 13 mg/dL
- CARBON DIOXIDE (Rattus norvegicus [2]; [8]): 33 mmol/L
- CHLORIDE (Rattus norvegicus [2]; [8]): 100.33 MEQ/L
- CHOLESTEROL (Rattus norvegicus [2]; [8]): 76.67 mg/dL
- CREATININE (Rattus norvegicus [2]; [8]): 0.12 mg/dL
- LACTATE DEHYDROGENASE (Rattus norvegicus [2]; [8]): 116.67 u/L
- LIPASE (Rattus norvegicus [2]; [8]): 8 u/L
- POTASSIUM (Rattus norvegicus [2]; [8]): 6.33 MEQ/L
- TOTAL BILIRUBIN (Rattus norvegicus [2]; [8]): 0.18 mg/dL
- TOTAL PROTEIN (Rattus norvegicus [2]; [8]): 5.77 G/DL
- ABSOLUTE EOSINOPHIL (Rattus norvegicus [2]; [9]): 210.67 CELLS/uL
- ABSOLUTE LYMPHOCYTE (Rattus norvegicus [2]; [9]): 10744.33 CELLS/uL
- ABSOLUTE MONOCYTE (Rattus norvegicus [2]; [9]): 466.33 CELLS/uL
- ABSOLUTE SEGMENTED NEUTROPHIL (Rattus norvegicus [2]; [9]): 1512 CELLS/uL
- BASOPHIL (Rattus norvegicus [2]; [9]): 0%
- ERYTHROCYTE COUNT (Rattus norvegicus [2]; [9]): 5.65 x10E6/uL
- HEMATOCRIT (Rattus norvegicus [2]; [9]): 34.1%
- HEMOGLOBIN (Rattus norvegicus [2]; [9]): 12.63 G/DL
- LEUKOCYTE COUNT (Rattus norvegicus [2]; [9]): 12.93 x10E3/uL
- LYMPHOCYTE (Rattus norvegicus [2]; [9]): 84.67%
- MEAN CORPUSCULAR HEMOGLOBIN (Rattus norvegicus [2]; [9]): 22.43 pg
- MEAN CORPUSCULAR HEMOGLOBIN CONCENTRATION (Rattus norvegicus [2]; [9]): 37.1 G/DL
- MEAN CORPUSCULAR VOLUME (Rattus norvegicus [2]; [9]): 60.37 fL
- MONOCYTE (Rattus norvegicus [2]; [9]): 3.33%
- NEUTROPHIL (Rattus norvegicus [2]; [9]): 10.67%
- NUCLEATED RED BLOOD CELLS (Rattus norvegicus [2]; [9]): 0 /100WBC
- PLATELET COUNT (Rattus norvegicus [2]; [9]): 1117 x10E3/uL
- ALANINE AMINOTRANSFERASE (Rattus norvegicus [2]; [10]): 52.67 u/L
- ALBUMIN (Rattus norvegicus [2]; [10]): 4.3 G/DL
- ALKALINE PHOSPHATASE (Rattus norvegicus [2]; [10]): 366 u/L
- ASPARTATE AMINOTRANSFERASE (Rattus norvegicus [2]; [10]): 77.67 u/L
- BLOOD UREA NITROGEN (Rattus norvegicus [2]; [10]): 13 mg/dL
- CARBON DIOXIDE (Rattus norvegicus [2]; [10]): 26 mmol/L
- CHOLESTEROL (Rattus norvegicus [2]; [10]): 82.67 mg/dL
- CREATININE (Rattus norvegicus [2]; [10]): 0.16 mg/dL
- LACTATE DEHYDROGENASE (Rattus norvegicus [2]; [10]): 175 u/L
- LIPASE (Rattus norvegicus [2]; [10]): 8 u/L
- PHOSPHORUS (Rattus norvegicus [2]; [10]): 12.07 mg/dL
- POTASSIUM (Rattus norvegicus [2]; [10]): 6.17 MEQ/L
- TOTAL BILIRUBIN (Rattus norvegicus [2]; [10]): 0.17 mg/dL
- TOTAL PROTEIN (Rattus norvegicus [2]; [10]): 6.23 G/DL
- URIC ACID (Rattus norvegicus [2]; [10]): 1.7 mg/dL
